Experimental findings from patent publication US20020155518A1, “Method of detecting compounds that control fungal diseases via effects on sporulation” (priority 2000, published 2002) are described below.

Each structure is given as a SMILES string.

Test [1] deals with Apple Scab (Venturia inaequalis). Kind of test: Protectant foliar spray test against apple scab. Further: key: '+++' =high control; '++' =moderate control; '+' =low control; '0'=no control. The test is classed as in vivo.
For test [2], the system named is Rice Blast (Magnaporthe grisea). The test is classed as in vivo. Conditions: foliar spray before inoculation, vs untreated inoculated controls.
Test [3] has as its system Leptosphaeria (Septoria) nodorum. Kind of test: Protectant foliar spray test against wheat L. nodorum blotch. Further: key: '+++' =high control; '++' =moderate control; '+' =low control; '0'=no control. Format: in vivo.
Test [4] relates to Wheat Powdery Mildew (Blumeria [Erysiphe] graminis f.sp. tritici). The conditions noted are these: in vivo.
Setting [5] is: apple seedlings, foliar spray before inoculation, vs untreated inoculated controls.
Setting [6] is: wheat, foliar spray before inoculation, vs untreated inoculated controls.
Wherever Level of Plant Disease Control, Wheat Powdery Mildew is given: key: '+++' =high control; '++' =moderate control; '+' =low control; '0'=no control.

As for `CCCC(C)Oc1cc(C)c(C(=O)c2c(Cl)cccc2Cl)cc1OC` (stereo not drawn) [U, (2,6-dichlorophenyl)[5-methoxy-2-methyl-4-(1-methylbutoxy)phenyl]methanone], the “Level of Plant Disease Control, Apple Scab” value (“Level … Apple Scab” below) in test [1] (setting [5]) is 0. In addition, in test [2], the “Level of Plant Disease Control, Rice Blast” value (from here on “Level … Rice Blast”) is on record as “++”. For the same compound, the “Level of Plant Disease Control, Wheat L. nodorum” value (from here on “Level … Wheat L. nodorum”) in test [3] (setting [6]) is recorded as “+++”. Also, in test [4], the “Level of Plant Disease Control, Wheat Powdery Mildew” value (“Level … Wheat Powdery Mildew” for short) is listed as “++”.
In the case of `COc1cc(C(=O)c2c(Cl)cccc2Cl)c(C)cc1OC1CCCC1` [K, [4-(cyclopentyloxy)-5-methoxy-2-methylphenyl](2,6-dichlorophenyl)methanone], in test [2], the “Level … Rice Blast” value is on record as 0. Further, in test [3] (setting [6]), the “Level … Wheat L. nodorum” value is “+++”. In test [4], the “Level … Wheat Powdery Mildew” value turned out to be 0.
For `COc1cc(C)c(C(=O)c2c(OC)ccc(Br)c2C)c(OCc2ccccc2F)c1OC` [C, (3-bromo-6-methoxy-2-methylphenyl)[3,4-dimethoxy-6-methyl-2-[(2-fluorophenyl)methoxy]phenyl]methanone], in test [1] (setting [5]), the “Level … Apple Scab” value is 0. The “Level … Rice Blast” value in test [2] is “++”. In addition, the “Level … Wheat Powdery Mildew” value in test [4] is “+++”.
Regarding `COc1cc(C)c(C(=O)c2c(OC)ccc(Cl)c2C)c(OC)c1OC` [R, (3-chloro-6-methoxy-2-methylphenyl)(2,3,4-trimethoxy-6-methylphenyl)methanone], the “Level … Apple Scab” value in test [1] (setting [5]) is 0. In addition, in test [2], the “Level … Rice Blast” value is reported as “++”. For the same compound, in test [3] (setting [6]), the “Level … Wheat L. nodorum” value was 0. Further, the “Level … Wheat Powdery Mildew” value in test [4] is “+++”.
For `COc1cc(C)c(C(=O)c2c(C)cccc2C)c(OCc2ccccc2)c1OC` [O, [3,4-dimethoxy-6-methyl-2-(phenylmethoxy)phenyl](2,6-dimethylphenyl)methanone], the “Level … Apple Scab” value in test [1] (setting [5]) came out at 0. For the same compound, the “Level … Rice Blast” value in test [2] is “++”. Further, in test [3] (setting [6]), the “Level … Wheat L. nodorum” value was determined as 0. Besides, the “Level … Wheat Powdery Mildew” value in test [4] is listed as “+++”.
As to `COc1cc(C)c(C(=O)c2c(OC)ccc(Br)c2C)c(OC)c1OC` [M, (3-bromo-6-methoxy-2-methylphenyl)(2,3,4-trimethoxy-6-methylphenyl)methanone], the “Level … Apple Scab” value in test [1] (in vivo) is listed as “+++”. In test [2], the “Level … Rice Blast” value worked out at 0. In addition, the “Level … Wheat L. nodorum” value in test [3] (in vivo) is reported as 0. The “Level … Wheat Powdery Mildew” value in test [4] is reported as “+++”.
On to `COc1cc(C)c(C(=O)c2c(OC)ccc(Br)c2C)c(OCc2ccc(Cl)cc2)c1OC` [EE, (3-bromo-6-methoxy-2-methylphenyl)[3,4-dimethoxy-6-methyl-2-[(4-chlorophenyl)methoxy]phenyl]methanone], for which the “Level … Apple Scab” value in test [1] (setting [5]) is 0. Besides, the “Level … Rice Blast” value in test [2] is listed as 0. Besides, the “Level … Wheat L. nodorum” value in test [3] (setting [6]) is on record as 0. In addition, the “Level … Wheat Powdery Mildew” value in test [4] is recorded as “+++”.
On to `COc1cc(C)c(C(=O)c2c(OC)ccc(Br)c2Cl)c(OC)c1OC` [J, (3-bromo-2-chloro-6-methoxyphenyl)(2,3,4-trimethoxy-6-methylphenyl)methanone], for which, in test [1] (setting [5]), the “Level … Apple Scab” value is given as “+”. Further, the “Level … Rice Blast” value in test [2] came to 0. In addition, the “Level … Wheat L. nodorum” value in test [3] (setting [6]) turned out to be 0. Besides, in test [4], the “Level … Wheat Powdery Mildew” value is listed as “+++”.
Regarding `CCCOc1c(OC)cc(C)c(C(=O)c2c(OC)ccc(Cl)c2C)c1O` [DD, (3-chloro-6-methoxy-2-methylphenyl)(2-hydroxy-4-methoxy-6-methyl-3-propoxyphenyl)methanone], in test [1] (setting [5]), the “Level … Apple Scab” value came to 0. The “Level … Rice Blast” value in test [2] is listed as 0. For the same compound, in test [3] (setting [6]), the “Level … Wheat L. nodorum” value was determined as 0. Further, the “Level … Wheat Powdery Mildew” value in test [4] is listed as “+++”.
For `COc1cc(C)c(C(=O)c2c(C)cccc2C)c(OCc2cccc(C)c2)c1OC` [Compound E, [3,4-dimethoxy-6-methyl-2-[(3-methylphenyl)methoxy]phenyl](2,6-dimethylphenyl)methanone], the “Level … Wheat Powdery Mildew” value in test [4] is “+++”.
As to `CCCCOc1c(OC)cc(C)c(C(=O)c2c(Cl)cccc2Cl)c1OCCCC` [B, (2,3-dibutoxy-4-methoxy-6-methylphenyl)(2,6-dichlorophenyl)methanone], in test [1] (setting [5]), the “Level … Apple Scab” value is listed as 0. Also, the “Level … Rice Blast” value in test [2] is 0. For the same compound, the “Level … Wheat L. nodorum” value in test [3] (setting [6]) is on record as 0. In addition, the “Level … Wheat Powdery Mildew” value in test [4] is listed as “+++”.
For the compound `COc1cc(C)c(C(=O)c2c(Cl)cccc2Cl)c(OCc2ccc(F)cc2)c1OC` [D, (2,6-dichlorophenyl)[2-[(4-fluorophenyl)methoxy]-3,4-dimethoxy-6-methylphenyl]methanone], the “Level … Wheat Powdery Mildew” value in test [4] is recorded as “+++”.
As to `COc1cc(C)c(C(=O)c2c(O)ccc(Cl)c2C)c(OC)c1OC` [Compound N, (3-chloro-6-hydroxy-2-methylphenyl)(2,3,4-trimethoxy-6-methylphenyl)methanone], the “Level … Apple Scab” value in test [1] (setting [5]) stood at 0. In addition, in test [2], the “Level … Rice Blast” value was “++”. Further, the “Level … Wheat L. nodorum” value in test [3] (setting [6]) was 0. Besides, in test [4], the “Level … Wheat Powdery Mildew” value is “+++”.
`CCCOc1c(OC)cc(C)c(C(=O)c2c(OC)ccc(Br)c2C)c1OCc1ccccc1` [Y, (3-bromo-6-methoxy-2-methylphenyl)[4-methoxy-6-methyl-2-(phenylmethoxy)-3-propoxyphenyl]methanone]: in test [1] (setting [5]), the “Level … Apple Scab” value is reported as 0. Moreover, the “Level … Rice Blast” value in test [2] was determined as 0. Moreover, the “Level … Wheat L. nodorum” value in test [3] (setting [6]) stood at 0. In addition, in test [4], the “Level … Wheat Powdery Mildew” value is “+++”.
Take `CCCOc1c(OC)cc(C)c(C(=O)c2c(OC)ccc(Br)c2C)c1OCc1ccc(C(C)(C)C)cc1` [BB, (3-bromo-6-methoxy-2-methylphenyl)[4-methoxy-6-methyl-3-propoxy-2-[[4-(1,1-dimethylethyl)phenyl]methoxy]phenyl]methanone]: the “Level … Apple Scab” value in test [1] (setting [5]) worked out at 0. Moreover, the “Level … Rice Blast” value in test [2] came to 0. Besides, the “Level … Wheat L. nodorum” value in test [3] (setting [6]) was determined as 0. For the same compound, the “Level … Wheat Powdery Mildew” value in test [4] is listed as “+++”.
As for `CCCCCOc1c(OC)cc(C)c(C(=O)c2c(OC)ccc(C)c2Cl)c1OC` [P, (2-chloro-6-methoxy-3-methylphenyl)[2,4-dimethoxy-6-methyl-3-(pentyloxy)phenyl]methanone], in test [1] (setting [5]), the “Level … Apple Scab” value was 0. Also, the “Level … Rice Blast” value in test [2] was “++”. Besides, the “Level … Wheat L. nodorum” value in test [3] (setting [6]) is listed as 0. Further, in test [4], the “Level … Wheat Powdery Mildew” value was “+++”.
Turning to `COc1cc(C)c(C(=O)c2c(C)cccc2C)c(OCc2c(F)cc(F)cc2F)c1OC` [H, [3,4-dimethoxy-6-methyl-2-[(2,4,6-trifluorophenyl)methoxy]phenyl](2,6-dimethylphenyl)methanone], the “Level … Apple Scab” value in test [1] (setting [5]) was 0. Moreover, the “Level … Rice Blast” value in test [2] was 0. In addition, in test [3] (setting [6]), the “Level … Wheat L. nodorum” value came to 0. For the same compound, in test [4], the “Level … Wheat Powdery Mildew” value is recorded as “+++”.
`COc1cc(C)c(C(=O)c2c(OC)ccc(Br)c2C)c(OCc2ccccc2C)c1OC` [AA, (3-bromo-6-methoxy-2-methyiphenyl)[3,4-dimethoxy-6-methyl-2-[(2-methylphenyl)methoxy]phenyl]methanone]: in test [1] (setting [5]), the “Level … Apple Scab” value is on record as 0. Further, the “Level … Rice Blast” value in test [2] is 0. For the same compound, in test [3] (setting [6]), the “Level … Wheat L. nodorum” value stood at 0. Also, the “Level … Wheat Powdery Mildew” value in test [4] is reported as “+++”.
`COc1cc(C)c(C(=O)c2c(C)ccc3ccccc23)c(OCc2ccccc2F)c1OC` [X, [3,4-dimethoxy-6-methyl-2-[(2-fluorophenyl)methoxy]phenyl](2-methyl-1-naphthalenyl)methanone]: the “Level … Apple Scab” value in test [1] (setting [5]) was 0. The “Level … Rice Blast” value in test [2] is listed as 0. Also, the “Level … Wheat L. nodorum” value in test [3] (setting [6]) worked out at 0. Moreover, the “Level … Wheat Powdery Mildew” value in test [4] is reported as “+++”.
Turning to `CCCOc1c(OC)cc(C)c(C(=O)c2c(OC)ccc(Br)c2C)c1OCc1ccc(C(F)(F)F)cc1` [CC, (3-bromo-6-methoxy-2-methylphenyl)[4-methoxy-6-methyl-3-propoxy-2-[[4-(trifluoromethyl)phenyl]methoxy]phenyl]methanone], the “Level … Apple Scab” value in test [1] (setting [5]) amounted to 0. For the same compound, the “Level … Rice Blast” value in test [2] worked out at 0. The “Level … Wheat L. nodorum” value in test [3] (setting [6]) worked out at 0. Moreover, the “Level … Wheat Powdery Mildew” value in test [4] is listed as “+++”.
Take `CCC(=O)Oc1c(OC)c(OC)cc(C)c1C(=O)c1c(Cl)cccc1Cl` [W, (2,6-dichlorophenyl)[3,4-dimethoxy-6-methyl-2-(1-oxopropoxy)phenyl]methanone]: the “Level … Apple Scab” value in test [1] (setting [5]) is on record as “+++”. The “Level … Rice Blast” value in test [2] is reported as “+++”. Further, the “Level … Wheat L. nodorum” value in test [3] (setting [6]) came to 0. Further, the “Level … Wheat Powdery Mildew” value in test [4] is on record as “+++”.
Take `COc1cc(C)c(C(=O)c2c(Cl)cccc2Cl)c(OCc2ccccc2F)c1OC` [V, (2,6-dichlorophenyl)[2-[(2-fluorophenyl)methoxy]-3,4-dimethoxy-6-methylphenyl]methanone]: the “Level … Apple Scab” value in test [1] (setting [5]) came to 0. For the same compound, the “Level … Rice Blast” value in test [2] was “++”. For the same compound, the “Level … Wheat L. nodorum” value in test [3] (setting [6]) turned out to be 0. Further, in test [4], the “Level … Wheat Powdery Mildew” value is “+++”.
For the compound `COc1cc(C)c(C(=O)c2c(OC)ccc(Br)c2C)c(OCc2cccc(C)c2)c1OC` [Compound S, (3-bromo-6-methoxy-2-methylphenyl)[3,4-dimethoxy-6-methyl-2-[(3-methylphenyl)methoxy]phenyl]methanone], in test [4], the “Level … Wheat Powdery Mildew” value was “+++”.
